Measured values from PMC7088272 (Biotechnology Letters, 2016).

Legend:
ZIKV NS2B-NS3^pro [1] = target: T1, ZIKV NS2B-NS3^pro (Zika virus, UniProt A0A024B7W1); assay: FRET-based inhibition assay of ZIKV NS2B-NS3pro protease; assay type: biochemical; settings: for inhibition at 100 µM: pH 7, 100 µM inhibitor
ZIKV NS2B-NS3^pro [2] = target: T1, ZIKV NS2B-NS3^pro; assay: Inhibitor kinetic study; assay type: biochemical
[3] = 26 μM FRET substrate, 8.7 μg enzyme, 50 mM Tris/HCl pH 7.0, 25 °C, 11 min

T1 sequence (A0A024B7W1 1421-1469): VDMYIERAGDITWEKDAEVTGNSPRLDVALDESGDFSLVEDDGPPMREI
T1 sequence (A0A024B7W1 1503-1688): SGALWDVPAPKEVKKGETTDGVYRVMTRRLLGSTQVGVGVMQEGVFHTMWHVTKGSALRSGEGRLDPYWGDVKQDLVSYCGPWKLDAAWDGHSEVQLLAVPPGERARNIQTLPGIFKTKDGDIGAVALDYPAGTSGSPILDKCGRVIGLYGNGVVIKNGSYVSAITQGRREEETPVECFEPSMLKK

| Compound | inhibition at 100 µM (ZIKV NS2B-NS3^pro [1]; [3]) | IC50 (ZIKV NS2B-NS3^pro [1]) | further results |
| --- | --- | --- | --- |
| O=C(O[C@@H]1Cc2c(O)cc(O)cc2O[C@@H]1c1ccc(O)c(O)c1)c1cc(O)c(O)c(O)c1 [Epicatechin gallate] | > 40% | – | – |
| O=C(O[C@@H]1Cc2c(O)cc(O)cc2O[C@H]1c1cc(O)c(O)c(O)c1)c1cc(O)c(O)c(O)c1 [Gallocatechin gallate] | > 40% | 99 ± 1.8 µM | – |
| O=c1c(O[C@@H]2O[C@H](CO)[C@@H](O)[C@H](O)[C@H]2O)c(-c2ccc(O)cc2)oc2cc(O)cc(O)c12 [Astragalin] | > 40% | 112 ± 5.5 µM | – |
| C[C@@H]1O[C@@H](OC[C@H]2O[C@@H](Oc3c(-c4ccc(O)c(O)c4)oc4cc(O)cc(O)c4c3=O)[C@H](O)[C@@H](O)[C@@H]2O)[C@H](O)[C@H](O)[C@H]1O [Rutin] | > 40% | – | – |
| C[C@@H]1O[C@@H](O[C@H]2[C@H](Oc3cc(O)c4c(c3)O[C@H](c3ccc(O)cc3)CC4=O)O[C@H](CO)[C@@H](O)[C@@H]2O)[C@H](O)[C@H](O)[C@H]1O [Naringin] | – | – | inhibitory activity against ZIKV NS2B-NS3^pro (in words) (ZIKV NS2B-NS3^pro [1]; 100 µM inhibitor): weak inhibitory activities |
| O=c1c(O)c(-c2cc(O)c(O)c(O)c2)oc2cc(O)cc(O)c12 [Myricetin] | – | – | Ki (ZIKV NS2B-NS3^pro [2]): 8.9 ± 1.9 µM; inhibition type (ZIKV NS2B-NS3^pro [2]; Lineweaver–Burk and Dixon plots, inhibitor 0–50 µM, substrate 10–50 µM): mixed type; Inhibition (%) (ZIKV NS2B-NS3^pro [1]; 100 µM inhibitor, 26 μM FRET substrate, 8.7 μg enzyme, 50 mM Tris/HCl pH 7.0, 25 °C, 11 min): more than 40% |
| O=c1cc(-c2ccc(O)c(O)c2)oc2cc(O)cc(O)c12 [Luteolin] | > 40% | 53 ± 1.3 µM | inhibition activity compared to chrysin (ZIKV NS2B-NS3^pro [1]; ratio of inhibition at 100 µM): 2.8 times |
